Data set [1] concerns carrageenan-induced inflammation and hyperalgesia. Description: Carrageenan test (paw edema and thermal hyperalgesia). It is filed as in vivo, mice. The source says: (§1) Male CD1 mice, weighing 25-30 g, (Charles River, Calco, Italy) were used. Procedures were in accordance with the Ethical Guidelines of the International Association for the Study of Pain and were approved by Italian regulations on protection of animals used for experimental and other scientific purposes (D. M. 116192) as well as with European Economic Community regulations (O. J. of E. C. L 358/1 Dec. 18, 1986). Mice were housed in groups of 5 in ventilated cages containing autoclaved cellulose paper as nesting material, with free access to food and water. They were maintained under a 12 h light/dark cycle (lights on at 08:00 a.m.), at controlled temperature (21±1° C.) and relative humidity (55±10%). The animals are randomly divided in groups of 6 mice. Behavioral testing was performed between 9:00 a.m. and 5:00 p.m. Scientists running the experiments were not aware of the treatment protocol at the time of the test (blind procedure).
The pro-inflammatory agent λ-carrageenan (1% weight-vol^−1 in sterile water, 50 μL) was injected into the left hind paw of slightly restrained mice, and paw volume was measured with a plethysmometer (Ugo Basile, Comerio, Italy), while thermal hyperalgesia was assessed by the method of Hargreaves et al. (1988), measuring the latency to withdraw the hind paw from a focused beam of radiant heat (thermal intensity: infrared 3.0) in a plantar test apparatus (Ugo Basile, Comerio, Italy). Cutoff time was set at 30 s. Withdrawal latencies were measured on both ipsilateral and contralateral paws at various time points after drug administration.
Drug solutions were prepared immediately before use in saline containing 10% PEG-400 and 10% Tween 80 and orally administered in a volume of 2.5 mL-kg^−1 before intraplantar injection of carrageenan.
Results are expressed as the mean±S.E.M., or 95% confidence limits (95% CL). Efficacy data were compared using two-way analysis of variance (ANOVA) followed by Bonferroni's test for multiple comparisons. For gastric toxicity, the significance of differences between groups was determined by one-way ANOVA followed by a Bonferroni's test for multiple comparisons.
For orientation: In the carrageenan paw model, swelling and tenderness develop within hours.

For another data set, the system named is gastric mucosa. Nature of the data set: Gastric lesions (gastric irritation, ulceration index). In kind it is in vivo. Particulars: food-deprived mice.
Excerpt: as §1
To study the gastric irritation the protocol of Chan et al. (1995) was followed. […] After 4 h, the mice were killed by CO2 asphyxiation. The stomachs were removed, opened, rinsed in PBS, and the stomach lining was photographed. Scoring was done by observers blinded to experimental conditions, as previously reported (Jain et al., 2002): red coloration=0.5; spot ulcers=1; hemorrhagic streaks=1.5. […]

Another data set concerns the target ovine COX-1 (Ovis aries (Sheep), UniProt P05979). Nature of the data set: In vitro COX assay (COX Inhibitor Screening Assay Kit), COX-1. It is filed as biochemical. Particulars: 5 μM arachidonic acid. Here is the method:
COX activity was measured using a commercial kit (COX Inhibitor Screening Assay Kit—Cayman Chemical N. 560131) which includes both ovine COX-1 and human recombinant COX-2 enzymes. Inhibitors were pre-incubated with either ovine COX-1 or human COX-2 in order to screen isozyme-specific inhibition. Differently than described in the kit protocol, the reaction was carried out in the presence of 5 μM arachidonic acid while for the blank sample (no activity) the two enzymes were inactivated for 40 minutes at 100° C. It was then measured the amount of PGF2α produced by reduction with SnCl2 of COX-derived PGH2, via enzyme immunoassay (EIA) using a PG-specific antibody and competing with a PG-acetylcholinesterase conjugate.
Absorbance was measured at 412 nm with a Tecan Infinite M200 plate reader and data were processed according to manufacturer's instructions.
The median inhibitory concentrations (IC50) were determined by non-linear regression analysis of the Log [concentration]/response curves generated with mean replicate values using a four parameter Hill equation curve fitting with GraphPad Prism 5 (GraphPad Software Inc., CA-USA).

Another data set has as its system FAAH. The following applies: literature value; cited from earlier work.
Setting [2] is: oral, 3, 10, 30 and 100 mg/kg, mouse.

Consider three compounds from patent US9630914B2, “Multitarget FAAH and COX inhibitors and therapeutical uses thereof” (FONDAZIONE ISTITUTO ITALIANO DI TECNOLOGIA, priority 2012, dated 2017).

The structures appear in SMILES notation. Where two headings read alike, the source gives them in different places.

ovine COX-1, sequence (P05979 25-600): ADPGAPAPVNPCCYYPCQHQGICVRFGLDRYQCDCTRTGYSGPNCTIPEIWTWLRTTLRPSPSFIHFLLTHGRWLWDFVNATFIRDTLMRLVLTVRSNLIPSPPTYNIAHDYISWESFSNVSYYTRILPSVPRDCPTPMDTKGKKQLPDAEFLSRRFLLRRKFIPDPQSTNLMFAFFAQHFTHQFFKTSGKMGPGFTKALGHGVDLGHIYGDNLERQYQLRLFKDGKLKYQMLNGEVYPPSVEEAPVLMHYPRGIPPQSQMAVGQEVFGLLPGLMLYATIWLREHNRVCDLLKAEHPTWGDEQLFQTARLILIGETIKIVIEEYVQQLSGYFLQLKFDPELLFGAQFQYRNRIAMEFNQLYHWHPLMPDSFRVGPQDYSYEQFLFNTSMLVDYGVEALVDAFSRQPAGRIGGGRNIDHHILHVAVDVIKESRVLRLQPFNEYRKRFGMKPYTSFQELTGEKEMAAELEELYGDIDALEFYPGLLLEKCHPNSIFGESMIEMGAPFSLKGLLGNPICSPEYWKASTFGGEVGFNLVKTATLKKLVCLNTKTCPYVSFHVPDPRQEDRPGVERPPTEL

What is called ED50 is the midpoint of the dose-response relation. For `CC(C(=O)O)c1ccc(-c2ccccc2)c(F)c1` (stereo not shown) [Compound A, flurbiprofen, reference compound], the 50% effective dose (ED50) in data set [1] (oral, mouse carrageenan model, read-out: ED50 on edema (Δ volume paw)) was 30 mg/kg; in data set [1] (oral, mouse carrageenan model, read-out: ED50 on thermal hyperalgesia (withdrawal latency)), 30 mg/kg. For the same compound, the “gastric irritation and gastric ulcers” value in the data set with gastric mucosa (oral 30 mg/kg) is “profound gastric irritation and appearance of gastric ulcers”.
The term IC50 denotes the point on the concentration scale where inhibition reaches its midpoint. For `CCCCCCNC(=O)Oc1cccc(-c2ccc(C(C)C(=O)O)cc2F)c1` (stereo not shown) [Example 12, 2-[3-fluoro-4-[3-(hexylcarbamoyloxy)phenyl]phenyl]propanoic acid], the IC50 against ovine COX-1 amounted to 12 nM. Besides, the 50% effective dose (ED50) in data set [1] (Mus musculus, read-out: ED50 on edema (Δ volume paw)) turned out to be 10 mg/kg. Moreover, the ED50 in data set [1] (Mus musculus, read-out: ED50 on thermal hyperalgesia (withdrawal latency)) came to 10 mg/kg. In addition, in data set [1] (setting [2]), the “effect on carrageenan-induced inflammation and hyperalgesia” value is “dose-dependent and persistent suppression”; the “potency at inhibiting the responses induced by carrageenan, compared with compound A” value was “more potent than oral compound A”. In addition, the ulcerogenic effect entry in the data set with gastric mucosa (oral, up to 100 mg/kg) is on record as “no ulcerogenic effect”.
As to `Cc1cccnc1NC(=O)C(C)c1ccc(CC(C)C)cc1` (stereo not shown) [Ibu-am5], the IC50 in the data set on FAAH was 2700 nM.
